According to patent publication US10906906B2, “Organic compounds” (INTRA-CELLULAR THERAPIES, INC., priority 2016, dated 2021):

Biological target: μ (MOP) (h) receptor (Homo sapiens, UniProt P35372)
Assay: Cellular functional assay, μ (MOP) (h) antagonist effect (cAMP, HTRF)
Type: cell-based
Settings: human recombinant (CHO cells)
Experimental: The compounds are tested at several concentrations to determine their IC50 or EC50. Cellular agonist effects are calculated as percent of control response to a known reference agonist for each target and cellular antagonist effect is calculated as a percent inhibition of control reference agonist response for each target. The following assay is performed to determine the effect of the Compound of Formula II-B on the μ (MOP) (h) receptor: [table] The results are expressed as a percent of control agonist response: and as a percent inhibition of control agonist response: obtained in the presence of the Compound of Formula II-B or II-C. […] For the antagonists, the apparent dissociation constants (KB) are calculated using the modified Cheng Prusoff equation: [formula] where A=concentration of reference agonist in the assay, and E[…]=EC50 value of the reference agonist.

μ (MOP) (h) receptor, sequence (P35372 whole entry): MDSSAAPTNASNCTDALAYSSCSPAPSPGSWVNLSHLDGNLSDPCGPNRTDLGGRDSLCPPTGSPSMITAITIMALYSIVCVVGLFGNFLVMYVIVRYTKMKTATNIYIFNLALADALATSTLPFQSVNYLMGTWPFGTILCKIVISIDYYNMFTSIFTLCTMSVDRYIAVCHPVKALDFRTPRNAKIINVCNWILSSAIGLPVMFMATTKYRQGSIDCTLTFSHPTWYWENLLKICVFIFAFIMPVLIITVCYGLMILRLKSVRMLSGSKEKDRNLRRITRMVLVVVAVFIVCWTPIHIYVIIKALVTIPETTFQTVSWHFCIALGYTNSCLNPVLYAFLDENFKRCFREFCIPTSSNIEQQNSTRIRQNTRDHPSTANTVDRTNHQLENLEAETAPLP

| Structure (SMILES) | IC50 (DAMGO (20 nM) stimulus, cAMP, 10 min @ 37° C.) | Kb (modified Cheng Prusoff equation, DAMGO (20 nM), read-out: μ (MOP) (h) (antagonist effect) KB (apparent dissociation constant)) | IC50 (unit inferred, highest concentration tested, DAMGO (20 nM)) |
| --- | --- | --- | --- |
| CN1C(=O)CN2c3c(cccc31)[C@@H]1CN(CCCc3n[nH]c4cc(F)ccc34)CC[C@@H]12 [Formula II-B] | 1300 nM | 140 nM |  |
| Fc1ccc2c(CCCN3CC[C@H]4[C@@H](C3)c3cccc5c3N4CCN5)n[nH]c2c1 [Formula II-C] |  |  | > 10000 nM |
